Measurements from article PMC11726654, “Discovery of MDI-114215: A Potent and Selective LIMK Inhibitor To Treat Fragile X Syndrome” (Journal of Medicinal Chemistry, 2024).

Assays:
[1] = target: LIMK1 (Homo sapiens, UniProt P53667); test: RapidFire mass spectrometry kinase assay (cofilin phosphorylation); type: biochemical; conditions: non-phosphorylated LIMK1; mean ± SEM; read-out: Enzymatic (RapidFire) pIC50 LIMK1 (converted)
[2] = target: LIMK2 (Homo sapiens, UniProt P53671); test: as above; type: biochemical; conditions: non-phosphorylated LIMK2; mean ± SEM; read-out: Enzymatic (RapidFire) pIC50 LIMK2 (converted)
[3] = Microsomal stability; conditions: for microsomal CLint at 2 μM / microsomal CLint at 0.5 h, 2 µM: human, microsomes, pH 7.4; for Microsomal CLint Human: human microsomes, 2 μM compound
[4] = Microsomal stability; conditions: for Microsomal CLint Rat: rat microsomes, 2 μM compound

Sequence of LIMK2 (P53671 whole entry): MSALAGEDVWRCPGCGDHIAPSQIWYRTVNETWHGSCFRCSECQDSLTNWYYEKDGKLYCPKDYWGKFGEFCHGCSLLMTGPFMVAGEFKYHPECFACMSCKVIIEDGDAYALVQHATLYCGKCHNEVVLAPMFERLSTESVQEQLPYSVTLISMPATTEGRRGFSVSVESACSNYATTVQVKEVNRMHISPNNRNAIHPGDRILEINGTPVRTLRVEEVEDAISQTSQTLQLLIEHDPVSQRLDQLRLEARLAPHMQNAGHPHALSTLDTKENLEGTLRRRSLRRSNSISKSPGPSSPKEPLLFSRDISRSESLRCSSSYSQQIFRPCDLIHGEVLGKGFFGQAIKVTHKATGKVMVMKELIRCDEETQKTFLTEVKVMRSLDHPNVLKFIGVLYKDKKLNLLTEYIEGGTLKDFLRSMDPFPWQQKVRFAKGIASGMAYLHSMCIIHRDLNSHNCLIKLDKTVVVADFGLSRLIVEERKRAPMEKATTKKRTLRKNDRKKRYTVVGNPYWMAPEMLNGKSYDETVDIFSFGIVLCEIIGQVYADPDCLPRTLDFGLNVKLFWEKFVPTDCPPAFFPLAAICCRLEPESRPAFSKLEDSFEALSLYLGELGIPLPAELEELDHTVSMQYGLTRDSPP
Sequence of LIMK1 (P53667 whole entry): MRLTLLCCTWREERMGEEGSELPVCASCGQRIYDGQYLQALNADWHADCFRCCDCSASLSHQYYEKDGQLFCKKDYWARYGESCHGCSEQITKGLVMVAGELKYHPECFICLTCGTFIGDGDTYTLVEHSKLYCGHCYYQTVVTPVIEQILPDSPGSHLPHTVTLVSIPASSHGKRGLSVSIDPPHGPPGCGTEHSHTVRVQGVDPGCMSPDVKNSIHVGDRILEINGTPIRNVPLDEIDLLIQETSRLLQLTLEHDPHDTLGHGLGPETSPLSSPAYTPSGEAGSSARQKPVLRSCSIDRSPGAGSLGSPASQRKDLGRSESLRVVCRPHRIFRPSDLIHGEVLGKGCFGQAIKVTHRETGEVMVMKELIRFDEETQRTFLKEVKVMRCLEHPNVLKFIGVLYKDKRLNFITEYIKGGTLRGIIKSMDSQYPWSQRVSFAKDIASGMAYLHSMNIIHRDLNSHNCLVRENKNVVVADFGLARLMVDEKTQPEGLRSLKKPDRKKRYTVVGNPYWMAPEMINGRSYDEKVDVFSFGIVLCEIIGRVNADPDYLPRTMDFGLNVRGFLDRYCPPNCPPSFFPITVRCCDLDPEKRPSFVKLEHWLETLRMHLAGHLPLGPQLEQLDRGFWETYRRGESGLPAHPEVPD

SMILES | IC50 [1] [nM] | IC50 [2] [nM] | microsomal CLint at 2 μM [3] [µL/min/mg] | microsomal CLint at 2 μM ([4]; rat, microsomes, pH 7.4) [µL/min/mg] | Microsomal CLint Rat [4] | Microsomal CLint Human [3] | microsomal CLint at 0.5 h, 2 µM [3] [µL/min/mg] | microsomal CLint at 0.5 h, 2 µM ([4]; rat, microsomes, pH 7.4) [µL/min/mg]
CCCCN(Cc1ccccc1)C(=O)c1ccc(S(=O)(=O)Nc2ccccc2)cc1F [Compound 21, N-Benzyl-N-butyl-2-fluoro-4-(phenylsulfamoyl)benzamide] | 407 | 30.2 |  |  |  |  |  | 
CCCCN(Cc1ccccc1)C(=O)c1ccc(S(=O)(=O)Nc2ccccc2)cc1C [Compound 22, N-Benzyl-N-butyl-2-methyl-4-(phenylsulfamoyl)benzamide] | 2140 | 148 |  |  |  |  |  | 
CCCCN(Cc1ccccc1)C(=O)c1ccc(S(=O)(=O)Nc2ccccc2)cn1 [Compound 23, N-Benzyl-N-butyl-5-(phenylsulfamoyl)pyridine-2-carboxamide] | 1350 | 166 |  |  |  |  |  | 
CCCCN(Cc1ccccc1)C(=O)c1cnc(S(=O)(=O)Nc2ccccc2)nc1 [Compound 24, N-Benzyl-N-butyl-2-(phenylsulfamoyl)pyrimidine-5-carboxamide] | 891 | 1740 |  |  |  |  |  | 
CCCCN(Cc1ccccc1)C(=O)c1ccc(S(=O)(=O)Cc2ccccc2)cc1 [Compound 29, N-Benzyl-4-benzylsulfonyl-N-butyl-benzamide] | > 10000 | 468 |  |  |  |  |  | 
CCCCN(Cc1ccccc1)C(=O)c1coc(S(=O)(=O)Nc2ccccc2)c1 [Compound 30, N-Benzyl-N-butyl-5-(phenylsulfamoyl)furan-3-carboxamide] | 6920 | 933 |  |  |  |  |  | 
CCCCN(Cc1ccccc1)C(=O)c1ccc(S(=O)(=O)NC)cc1 [Compound 34, N-Benzyl-N-butyl-4-(N-methylsulfamoyl)benzamide] | > 10000 | > 10000 |  |  |  |  |  | 
CCCCN(Cc1ccccc1)C(=O)c1ccc(S(=O)(=O)Nc2ccncc2)cc1 [Compound 35, N-Benzyl-N-butyl-4-(N-(pyridin-4-yl)sulfamoyl)benzamide] | > 10000 | > 10000 |  |  |  |  |  | 
CCCCN(Cc1ccccc1)C(=O)c1ccc(S(=O)(=O)Nc2cnoc2)cc1 [Compound 36, N-Benzyl-N-butyl-4-(isoxazol-4-ylsulfamoyl)benzamide] | > 10000 | 6610 |  |  |  |  |  | 
CCCCN(Cc1ccccc1)C(=O)c1ccc(S(=O)(=O)NC2CCC2)cc1 [Compound 37, N-Benzyl-N-butyl-4-(N-cyclobutylsulfamoyl)benzamide] | 4470 | 372 |  |  |  |  |  | 
CCCCN(Cc1ccccc1)C(=O)c1ccc(S(=O)(=O)NC2COC2)cc1 [Compound 38, N-Benzyl-N-butyl-4-(N-(oxetan-3-yl)sulfamoyl)benzamide] | > 10000 | > 10000 |  |  |  |  |  | 
CCCCN(Cc1ccc(F)cc1)C(=O)c1ccc(S(=O)(=O)Nc2ccccc2)cc1 [Compound 39, N-Butyl-N-(4-fluorobenzyl)-4-(N-phenylsulfamoyl)benzamide] | 195 |  | 409 | 942 |  |  |  | 
CCCCN(Cc1ccc(OC)cc1)C(=O)c1ccc(S(=O)(=O)Nc2ccccc2)cc1 [Compound 40, N-Butyl-N-(4-methoxybenzyl)-4-(N-phenylsulfamoyl)benzamide] | 447 | 39.8 | 280 | 978 |  |  |  | 
CCCCN(Cc1cccc(OC)c1)C(=O)c1ccc(S(=O)(=O)Nc2ccccc2)cc1 [Compound 41, N-Butyl-N-(3-methoxybenzyl)-4-(N-phenylsulfamoyl)benzamide] | 1620 | 224 | 556 | 783 |  |  |  | 
CCCCN(Cc1ccccc1OC)C(=O)c1ccc(S(=O)(=O)Nc2ccccc2)cc1 [Compound 42, N-Butyl-N-(2-methoxybenzyl)-4-(N-phenylsulfamoyl)benzamide] | 2570 | 1170 | 812 | 827 |  |  |  | 
CCCCN(Cc1ccncc1)C(=O)c1ccc(S(=O)(=O)Nc2ccccc2)cc1 [Compound 43, N-Butyl-4-(N-phenylsulfamoyl)-N-(pyridin-4-ylmethyl)benzamide] | 977 | 19.1 | 144 | 484 |  |  |  | 
CCCCN(Cc1cccnc1)C(=O)c1ccc(S(=O)(=O)Nc2ccccc2)cc1 [Compound 44, N-Butyl-4-(N-phenylsulfamoyl)-N-(pyridin-3-ylmethyl)benzamide] | 8130 | 1510 | 234 |  | Rapid |  |  | 
CCCCN(Cc1ccccn1)C(=O)c1ccc(S(=O)(=O)Nc2ccccc2)cc1 [Compound 45, N-Butyl-4-(N-phenylsulfamoyl)-N-(pyridin-2-ylmethyl)benzamide] | 1290 | 51.3 | 256 |  | Rapid |  |  | 

SMILES | IC50 [1] [nM] | IC50 [2] [nM] | microsomal CLint at 2 μM [3] [µL/min/mg] | microsomal CLint at 2 μM ([4]; rat, microsomes, pH 7.4) [µL/min/mg] | Microsomal CLint Rat [4] | Microsomal CLint Human [3] | microsomal CLint at 0.5 h, 2 µM [3] [µL/min/mg] | microsomal CLint at 0.5 h, 2 µM ([4]; rat, microsomes, pH 7.4) [µL/min/mg]
CCCCN(Cc1ccco1)C(=O)c1ccc(S(=O)(=O)Nc2ccccc2)cc1 [Compound 46, N-Butyl-N-(furan-2-ylmethyl)-4-(N-phenylsulfamoyl)benzamide] | 347 |  |  |  | Rapid | Rapid |  | 
CCCCN(CC1CCCO1)C(=O)c1ccc(S(=O)(=O)Nc2ccccc2)cc1 (stereo not drawn) [Compound 47, N-Butyl-4-(N-phenylsulfamoyl)-N-((tetrahydrofuran-2-yl)methyl)benzamide] | > 10000 | > 10000 | 427 |  | Rapid |  |  | 
CCCCN(Cc1ccc(CCC(=O)O)cc1)C(=O)c1ccc(S(=O)(=O)Nc2ccccc2)cc1 [Compound 48, 3-(4-((N-Butyl-4-(N-phenylsulfamoyl)benzamido)methyl)phenyl)propanoic acid] | 166 | 20.9 | 15 | 18 |  |  |  | 
CCCCN(Cc1ccc(N2CCNCC2)cc1)C(=O)c1ccc(S(=O)(=O)Nc2ccccc2)cc1 [Compound 49, N-Butyl-4-(N-phenylsulfamoyl)-N-(4-(piperazin-1-yl)benzyl)benzamide] | > 10000 | 2290 | 50 | 56 |  |  |  | 
CCN(Cc1ccccc1)C(=O)c1ccc(S(=O)(=O)Nc2ccccc2)cc1 [Compound 52, N-Benzyl-N-ethyl-4-(N-phenylsulfamoyl)benzamide] |  |  | 720 |  | Rapid |  |  | 
O=C(c1ccc(S(=O)(=O)Nc2ccccc2)cc1)N(CCO)Cc1ccccc1 [Compound 53, N-Benzyl-N-(2-hydroxyethyl)-4-(N-phenylsulfamoyl)benzamide] | 209 |  | 76 |  | Rapid |  |  | 
O=C(c1ccc(S(=O)(=O)Nc2ccccc2)cc1)N(CCCn1ccnc1)Cc1ccccc1 [Compound 56, N-Benzyl-N-(3-imidazol-1-ylpropyl)-4-(phenylsulfamoyl)benzamide] | 347 | 18.2 | 80 | 158 |  |  |  | 
O=C(c1ccc(S(=O)(=O)Nc2ccccc2)cc1)N(Cc1ccccc1)CC1CC1 [Compound 57, N-Benzyl-N-(cyclopropylmethyl)-4-(phenylsulfamoyl)benzamide] |  |  |  |  | Rapid |  | 495 | 
O=C(c1ccc(S(=O)(=O)Nc2ccccc2)cc1)N(Cc1ccccc1)C1CC1 [Compound 58, N-Benzyl-N-cyclopropyl-4-(phenylsulfamoyl)benzamide] | 1070 | 46.8 | 396 |  | Rapid |  |  | 
CC(C)CN(Cc1ccccc1)C(=O)c1ccc(S(=O)(=O)Nc2ccccc2)cc1 [Compound 59, N-Benzyl-N-isobutyl-4-(phenylsulfamoyl)benzamide] | 1020 | 20.9 |  |  | Rapid | Rapid |  | 
O=C(c1ccc(S(=O)(=O)Nc2ccccc2)cc1)N(Cc1ccccc1)CC1(Cn2ccnc2)CC1 [Compound 60, N-Benzyl-N-[[1-(imidazol-1-ylmethyl)cyclopropyl]methyl]-4-(phenylsulfamoyl)benzamide] | 407 | 19.1 | 109 | 395 |  |  |  | 
O=C(c1ccc(S(=O)(=O)Nc2ccccc2)cc1)N(Cc1ccc2[nH]ccc2c1)CC1CC1 [Compound 61, N-(Cyclopropylmethyl)-N-(1H-indol-5-ylmethyl)-4-(phenylsulfamoyl)benzamide] | 11 | 11 | 288 | 802 |  |  |  | 
O=C(c1ccc(S(=O)(=O)Nc2ccccc2)cc1)N(Cc1ccc2ncoc2c1)CC1CC1 [Compound 62, N-(1,3-Benzoxazol-6-ylmethyl)-N-(cyclopropylmethyl)-4-(phenylsulfamoyl)benzamide] | 95.5 | 6.46 | 263 |  | Rapid |  |  | 
O=C(c1ccc(S(=O)(=O)Nc2ccccc2)cc1)N(Cc1ccc(Br)cn1)CC1CC1 [Compound 63, N-[(5-Bromo-2-pyridyl)methyl]-N-(cyclopropylmethyl)-4-(phenylsulfamoyl)benzamide] | 19.1 | 25.7 | 307 |  | Rapid |  |  | 
Nc1ccc(CN(CC2CC2)C(=O)c2ccc(S(=O)(=O)Nc3ccccc3)cc2)nc1 [Compound 72, N-[(5-Amino-2-pyridyl)methyl]-N-(cyclopropylmethyl)-4-(phenylsulfamoyl)benzamide] |  |  |  |  |  |  | 36 | 431
CN(C)CCNc1ccc(CN(CC2CC2)C(=O)c2ccc(S(=O)(=O)Nc3ccccc3)cc2)nc1 [Compound 78, N-(Cyclopropylmethyl)-N-[[5-[2-(dimethylamino)ethylamino]-2-pyridyl]methyl]-4-(phenylsulfamoyl)benzamide] |  |  | 23 | 31 |  |  |  | 
CCN(Cc1ccc(NCCO)cn1)C(=O)c1ccc(S(=O)(=O)Nc2ccccc2)cc1 [Compound 80, N-Ethyl-N-[[5-(2-hydroxyethylamino)-2-pyridyl]methyl]-4-(phenylsulfamoyl)benzamide] |  |  | 12 | 51 |  |  |  | 
